Experimental data published in patent EP4759807A1, “PROTEOLYSIS TARGETING CHIMERA COMPOUND FOR DEGRADING IRAK4 AND USE THEREOF” (Shenzhen Zhongge Biological Technology Co., Ltd., priority 2023, dated 2025).
Where two headings read alike, the source gives them in different places.

Biological target: T1, IRAK4 (Homo sapiens, UniProt Q9NWZ3)
T1 sequence (Q9NWZ3 1-460): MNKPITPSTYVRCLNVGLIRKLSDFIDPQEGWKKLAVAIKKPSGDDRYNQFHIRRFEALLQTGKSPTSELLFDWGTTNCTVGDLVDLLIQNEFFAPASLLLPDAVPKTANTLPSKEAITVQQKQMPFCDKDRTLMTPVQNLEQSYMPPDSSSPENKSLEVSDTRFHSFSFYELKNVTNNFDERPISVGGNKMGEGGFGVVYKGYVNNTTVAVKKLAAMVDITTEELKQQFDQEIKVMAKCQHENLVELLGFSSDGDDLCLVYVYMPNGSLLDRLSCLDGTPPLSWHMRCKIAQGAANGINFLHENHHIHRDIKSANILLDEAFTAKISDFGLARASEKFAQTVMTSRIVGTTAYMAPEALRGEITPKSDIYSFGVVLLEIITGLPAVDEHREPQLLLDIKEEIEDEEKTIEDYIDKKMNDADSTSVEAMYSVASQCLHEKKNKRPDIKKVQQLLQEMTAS
Assay: Hibit fluorescence detection of proteolysis (IRAK4-HiBiT in HEK293T cells)
Assay type: cell-based
Design: host or cells: HEK293T (ATCC)
Conditions: for Dmax: HEK-293T
In short: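 Degradation read-out: luminescence from lytic HiBiT detection (15 min, room temperature) after 24 h compound exposure (37 °C, 5% CO2) of HEK293T cells transiently expressing IRAK4 fused to a HiBiT tag. Data fitted to a bell-shaped four-parameter model giving two EC50 values.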

[1] = IRAK4-HiBiT, HEK293T cells, 24 h

C[C@@H]1CN(C[C@H]2CC[C@H](n3cc(-n4cc(-c5ccc6cc(C(N)=O)cnn56)nn4)c(C(F)F)n3)CC2)CCN1c1cccc2c1n(C)c(=O)n2C1CCC(=O)NC1=O (stereo partly drawn) [Example 51, 7-(1-(3-(difluoromethyl)-1-((1R,4r)-4-(((3R)-4-(1-(2,6-dioxopiperidin-3-yl)-3-methyl-2-oxo-2,3-dihydro-1H-benzo[d]imidazol-4-yl)-3-methylpiperazin-1-yl)methyl)cyclohexyl)-1H-pyrazol-4-yl)-1H-1,2,3-triazol-4-yl)pyrrolo[1,2-b]pyridazine-3-carboxamide]
Dmax: > 80% | DC50 [1]: < 0.5 nM

C[C@H]1CN(c2cccc3c2n(C)c(=O)n3C2CCC(=O)NC2=O)CCN1C[C@H]1CC[C@H](n2cc(-n3cc(-c4cnn5ccc(N6CCOCC6)nc45)nn3)c(C(F)F)n2)CC1 (some centres unmarked) [Example 52]
Dmax: 70 to 80% | DC50 [1]: 0.5 to 1 nM

Cn1c(=O)n(C2CCC(=O)NC2=O)c2cccc(N3CCC4(CCCN(C[C@H]5CC[C@H](n6cc(-n7cc(-c8cnn9ccc(N%10CCOCC%10)nc89)nn7)c(C(F)F)n6)CC5)C4)CC3)c21 (some centres unmarked) [Example 53, 3-(4-(2-(((1r,4r)-4-(3-(difluoromethyl)-4-(4-(5-morpholinopyrazolo[1,5-a]pyrimidin-3-yl)-1H-1,2,3-triazol-1-yl)-1H-pyrazol-1-yl)cyclohexyl)methyl)-2,9-diazaspiro[5.5]undecan-9-yl)-3-methyl-2-oxo-2,3-dihydro-1H-benzo[d]imidazol-1-yl)piperidine-2,6-dione]
Dmax: 70 to 80% | DC50 [1]: 0.5 to 1 nM

Cn1c(=O)n(C2CCC(=O)NC2=O)c2cccc(N3CCN(C[C@H]4CC[C@H](n5cc(-n6cc(-c7ccc8cc(C(N)=O)cnn78)nn6)c(C(F)F)n5)CC4)CC3)c21 (some centres unmarked) [Example 57]
Dmax: 70 to 80% | DC50 [1]: < 0.5 nM

Cn1c(=O)n(C2CCC(=O)NC2=O)c2cccc(N3CC(N4CCN(C[C@H]5CC[C@H](n6cc(-n7cc(-c8ccc9cc(C(N)=O)cnn89)nn7)c(C(F)F)n6)CC5)CC4)C3)c21 (some centres unmarked) [Example 63, 7-(1-(3-(difluoromethyl)-1-((1r,4r)-4-((4-(1-(1-(2,6-dioxopiperidin-3-yl)-3-methyl-2-oxo-2,3-dihydro-1H-benzo[d]imidazol-4-yl)azetidin-3-yl)piperazin-1-yl)methyl)cyclohexyl)-1H-pyrazol-4-yl)-1H-1,2,3-triazol-4-yl)pyrrolo[1,2-b]pyridazine-3-carboxamide]
Dmax: 60 to 70% | DC50 [1]: < 0.5 nM

Cn1c(=O)n(C2CCC(=O)NC2=O)c2cccc(C#CCOC3CCN(C[C@H]4CC[C@H](n5cc(-n6cc(-c7ccc8cc(C(N)=O)cnn78)nn6)c(C(F)F)n5)CC4)CC3)c21 (some centres unmarked) [Example 65]
Dmax: 60 to 70% | DC50 [1]: < 0.5 nM

Cn1c(=O)n(C2CCC(=O)NC2=O)c2cccc(NC3CCN(C[C@H]4CC[C@H](n5cc(-n6cc(-c7ccc8cc(C(N)=O)cnn78)nn6)c(C(F)F)n5)CC4)CC3)c21 (some centres unmarked) [Example 66, 7-(1-(3-(difluoromethyl)-1-((1r,4r)-4-((4-((1-(2,6-dioxopiperidin-3-yl)-3-methyl-2-oxo-2,3-dihydro-1H-benzo[d]imidazol-4-yl)amino)piperidin-1-yl)methyl)cyclohexyl)-1H-pyrazol-4-yl)-1H-1,2,3-triazol-4-yl)pyrrolo[1,2-b]pyridazine-3-carboxamide]
Dmax: 70 to 80% | DC50 [1]: < 0.5 nM

Cn1c(=O)n(C2CCC(=O)NC2=O)c2cccc(N3CCN(C4CN(C[C@H]5CC[C@H](n6cc(-n7cc(-c8ccc9cc(C(N)=O)cnn89)nn7)c(C(F)F)n6)CC5)C4)CC3)c21 (some centres unmarked) [Example 67]
Dmax: > 80% | DC50 [1]: < 0.5 nM

Cn1c(=O)n(C2CCC(=O)NC2=O)c2cccc(CN3CCN(C[C@H]4CC[C@H](n5cc(-n6cc(-c7ccc8cc(C(N)=O)cnn78)nn6)c(C(F)F)n5)CC4)CC3)c21 (some centres unmarked) [Example 68]
Dmax: > 80% | DC50 [1]: < 0.5 nM

Cn1c(=O)n(C2CCC(=O)NC2=O)c2cccc(NC(=O)C3CCN(C[C@H]4CC[C@H](n5cc(-n6cc(-c7ccc8cc(C(N)=O)cnn78)nn6)c(C(F)F)n5)CC4)CC3)c21 (some centres unmarked) [Example 69, 7-(1-(3-(difluoromethyl)-1-((1r,4r)-4-((4-((1-(2,6-dioxopiperidin-3-yl)-3-methyl-2-oxo-2,3-dihydro-1H-benzo[d]imidazol-4-yl)carbamoyl)piperidin-1-yl)methyl)cyclohexyl)-1H-pyrazol-4-yl)-1H-1,2,3-triazol-4-yl)pyrrolo[1,2-b]pyridazine-3-carboxamide]
Dmax: > 80% | DC50 [1]: > 5 nM

NC(=O)c1cnn2c(-c3cn(-c4cn([C@H]5CC[C@H](CN6CCN(c7ccc8c(c7)C(=O)N(C7CCC(=O)NC7=O)C8=O)CC6)CC5)nc4C(F)F)nn3)ccc2c1 (some centres unmarked) [Example 70, 7-(1-(3-(difluoromethyl)-1-((1r,4r)-4-(4-(2-(2,6-dioxopiperidin-3-yl)-1,3-dioxoisoindolin-5-yl)piperazin-1-yl)methyl)cyclohexyl-1H-pyrazol-4-yl)-1H-1,2,3-triazol-4-yl)pyrrolo[1,2-b]pyridazine-3-carboxamide]
Dmax: 70 to 80% | DC50 [1]: 1 to 5 nM

Cn1c(=O)n(C2CCC(=O)NC2=O)c2cccc(N3CCN(C4CCN(C[C@H]5CC[C@H](n6cc(-n7cc(-c8ccc9cc(C(N)=O)cnn89)nn7)c(C(F)F)n6)CC5)CC4)CC3)c21 (some centres unmarked) [Example 71]
Dmax: > 80% | DC50 [1]: < 0.5 nM

NC(=O)c1cnn2c(-c3cn(-c4cn([C@H]5CC[C@H](CN6CCN(c7ccc8c(c7)CN(C7CCC(=O)NC7=O)C8=O)CC6)CC5)nc4C(F)F)nn3)ccc2c1 (some centres unmarked) [Example 72, 7-(1-(3-(difluoromethyl)-1-((1r,4r)-4-((4-(2-(2,6-dioxopiperidin-3-yl)-1-oxoisoindolin-5-yl)piperazin-1-yl)methyl)cyclohexyl)-1H-pyrazol-4-yl)-1H-1,2,3-triazol-4yl)pyrrolo[1,2-b]pyridazine-3-carboxamide]
Dmax: 60 to 70% | DC50 [1]: < 0.5 nM

Cn1c(=O)n(C2CCC(=O)NC2=O)c2cccc(N3CC(CN4CCC(n5cc(-n6cc(-c7ccc8cc(C(N)=O)cnn78)nn6)c(C(F)F)n5)CC4)C3)c21 (centres unmarked) [Example 73, 7-(1-(3-(difluoromethyl)-1-(1-((1-(1-(2,6-dioxopiperidin-3-yl)-3-methyl-2-oxo-2,3-dihydro-1H-benzo[d]imidazol-4-yl)azetidin-3-yl)methyl)piperidin-4-yl)-1H-pyrazol-4-yl)-1H-1,2,3-triazol-4-yl) pyrrolo[1,2-b]pyridazine-3-carboxamide]
Dmax: < 60% | DC50 [1]: < 0.5 nM

Cn1c(=O)n(C2CCC(=O)NC2=O)c2cccc(N3CCC(CN4CCC(n5cc(-n6cc(-c7ccc8cc(C(N)=O)cnn78)nn6)c(C(F)F)n5)CC4)CC3)c21 (centres unmarked) [Example 74, 7-(1-(3-(difluoromethyl)-1-(1-((1-(1-(2,6-dioxopiperidin-3-yl)-3-methyl-2-oxo-2,3-dihydro-1H-benzo[d]imidazol-4-yl)piperidin-4-yl)methyl)piperidin-4-yl)-1H-pyrazol-4-yl)-1H-1,2,3-triazol-4-yl)pyrrolo[1,2-b]pyridazine-3-carboxamide]
Dmax (IRAK4-HiBiT, HEK293T cells, 24 h, read-out: Dmax): 70 to 80% | DC50 (IRAK4-HiBiT, HEK293T cells, 24 h, read-out: DC50): < 0.5 nM

NC(=O)c1cnn2c(-c3cn(-c4cn(C5CCN(CC6CN(c7ccc8c(c7)C(=O)N(C7CCC(=O)NC7=O)C8=O)C6)CC5)nc4C(F)F)nn3)ccc2c1 (centres unmarked) [Example 75]
Dmax: > 80% | DC50 [1]: 0.5 to 1 nM
